From patent US20230081426A1, “COMPOUNDS AND METHODS FOR KRAS MODULATION AND INDICATIONS THEREFOR” (Plexxikon Inc., priority 2020, published 2023)
Where two headings read alike, the source gives them in different places.

Columns and labels:
[1] = molecular target: T1, G12D-mutant human KRAS (amino acid residues 1-188) (Homo sapiens, UniProt P01116, G12D); experiment: KRAS Binding Disruption Assay (AlphaScreen; biotinylated KRpep-2d analogue or RAF1-RBD), G12D; details: for IC50: geometric mean, read-out: KRAS GMean IC50 (uM) MUTATION: G12D; for Improved KRAS G12D Biochemical Potency of Compounds with Bridged vs Non-Bridged R^1 Groups: fold more potent than non-bridged version at the R1 variable
T1 construct: G12D or G12C-mutant human KRAS (amino acid residues 1-188) with FLAG tag; made in house; host or cells: E. coli
Procedure, shortened: (§1)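 Mutant KRAS (5-20 nM) incubated 1 h at 25° C with test compound and 5-20 nM biotinylated KRpep-2d analogue or RAF1-RBD in 20 mM HEPES pH 7.5, 100 mM NaCl, 5 mM MgCl2, 0.01% Tween-20, 0.01% BSA.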

[2] = molecular target: T2, G12C-mutant human KRAS (amino acid residues 1-188) (Homo sapiens, UniProt P01116, G12C); experiment: KRAS Binding Disruption Assay (AlphaScreen; biotinylated KRpep-2d analogue or RAF1-RBD), G12C; details: geometric mean, read-out: KRAS GMean IC50 (uM) MUTATION: G12C
T2 construct: G12D or G12C-mutant human KRAS (amino acid residues 1-188) with FLAG tag; made in house; host or cells: E. coli
Procedure, shortened: as §1

[3] = molecular target: T3, G12V-mutant human KRAS (amino acid residues 1-188) (Homo sapiens, UniProt P01116, G12V); experiment: KRAS Binding Competition Assay (AlphaScreen; biotinylated KRpep-2d analogue), G12V; details: geometric mean, read-out: KRAS GMean IC50 (uM) MUTATION: G12V
T3 construct: G12V-mutant human KRAS (amino acid residues 1-188) with FLAG tag was purified from E. coli; made in house; host or cells: E. coli

[4] = Table 3, bridged vs non-bridged R1

Row | IC50 ([1]; KRAS G12D) | IC50 [2] | IC50 [3] | SMILES | Improved KRAS G12D Biochemical Potency of Compounds with Bridged vs Non-Bridged R^1 Groups ([1]; Table 3) | IC50 [1, 4]
1 | 0.0001 to 10 µM | 0.0001 to 10 µM | 0.0001 to 10 µM | COC(=O)CCC(=O)N1[C@@H]2CC[C@H]1CN(c1nc(OCC34CCCN3CCC4)nc3cc(-c4cc(O)cc5ccccc45)ccc13)C2 [P-0068, methyl 4-((1R,5S)-3-(7-(3-hydroxynaphthalen-1-yl)-2-((tetrahydro-1H-pyrrolizin-7a(5H)-yl)methoxy)quinazolin-4-yl)-3,8-diazabicyclo[3.2.1]octan-8-yl)-4-oxobutanoate] | – | –
2 | 0.0001 to 10 µM | 0.0001 to 10 µM | 0.0001 to 10 µM | O=C(NC1CNC1)N1[C@@H]2CC[C@H]1CN(c1nc(OCC34CCCN3CCC4)nc3cc(-c4cc(O)cc5ccccc45)ccc13)C2 [P-0125, (1R,5S)-N-(azetidin-3-yl)-3-(7-(3-hydroxynaphthalen-1-yl)-2-((tetrahydro-1H-pyrrolizin-7a(5H)-yl)methoxy)quinazolin-4-yl)-3,8-diazabicyclo[3.2.1]octane-8-carboxamide] | – | –
3 | 0.0001 to 10 µM | 0.0001 to 10 µM | 0.0001 to 10 µM | CN1CCC[C@H]1COc1nc(N2C[C@H]3CC[C@@H](C2)N3)c2ccc(-c3cc(O)cc4ccccc34)cc2n1 [P-0037, 4-(4-((1R,5S)-3,8-diazabicyclo[3.2.1]octan-3-yl)-2-(((S)-1-methylpyrrolidin-2-yl)methoxy)quinazolin-7-yl)naphthalen-2-ol] | – | –
4 | 0.0001 to 10 µM | 0.0001 to 10 µM | 0.0001 to 10 µM | CN1CCC[C@H]1COc1nc(N2C[C@H]3CC[C@@H](C2)N3C(=O)NC2CCNC2)c2ccc(-c3cc(O)cc4ccccc34)c(F)c2n1 (stereo partly drawn) [P-0106, (1R,5S)-3-(8-fluoro-7-(3-hydroxynaphthalen-1-yl)-2-(((S)-1-methylpyrrolidin-2-yl)methoxy)quinazolin-4-yl)-N-(pyrrolidin-3-yl)-3,8-diazabicyclo[3.2.1]octane-8-carboxamide] | – | –
5 | 0.0001 to 10 µM | 0.0001 to 10 µM | 10 to 100 µM | CCCNS(=O)(=O)N1[C@@H]2CC[C@H]1CN(c1nc(OCC34CCCN3CCC4)nc3cc(-c4cc(O)cc5ccccc45)ccc13)C2 [P-0096, (1R,5S)-3-(7-(3-hydroxynaphthalen-1-yl)-2-((tetrahydro-1H-pyrrolizin-7a(5H)-yl)methoxy)quinazolin-4-yl)-N-propyl-3,8-diazabicyclo[3.2.1]octane-8-sulfonamide] | – | –
6 | 0.0001 to 10 µM | 0.0001 to 10 µM | 0.0001 to 10 µM | O=C(CO)N1[C@@H]2CC[C@H]1CN(c1nc(OCC34CCCN3CCC4)nc3cc(-c4cc(O)cc5ccccc45)ccc13)C2 [P-0008, 2-hydroxy-1-((1R,5S)-3-(7-(3-hydroxynaphthalen-1-yl)-2-((tetrahydro-1H-pyrrolizin-7a(5H)-yl)methoxy)quinazolin-4-yl)-3,8-diazabicyclo[3.2.1]octan-8-yl)ethan-1-one] | – | –
7 | 0.0001 to 10 µM | 0.0001 to 10 µM | 0.0001 to 10 µM | O=C1NC(=O)/C(=C/C(=O)N2[C@@H]3CC[C@H]2CN(c2nc(OCC45CCCN4CCC5)nc4c(F)c(-c5cc(O)cc6ccccc56)ccc24)C3)S1 [P-0443, (Z)-5-(2-((1R,5S)-3-(8-fluoro-7-(3-hydroxynaphthalen-1-yl)-2-((tetrahydro-1H-pyrrolizin-7a(5H)-yl)methoxy)quinazolin-4-yl)-3,8-diazabicyclo[3.2.1]octan-8-yl)-2-oxoethylidene)thiazolidine-2,4-dione] | – | –
8 | 0.0001 to 10 µM | 0.0001 to 10 µM | 0.0001 to 10 µM | O=C1N=C(S)SC1CC(=O)N1[C@@H]2CC[C@H]1CN(c1nc(OCC34CCCN3CCC4)nc3c(F)c(-c4cc(O)cc5ccccc45)ccc13)C2 (stereo partly drawn) [P-0411, 5-(2-((1R,5S)-3-(8-fluoro-7-(3-hydroxynaphthalen-1-yl)-2-((tetrahydro-1H-pyrrolizin-7a(5H)-yl)methoxy)quinazolin-4-yl)-3,8-diazabicyclo[3.2.1]octan-8-yl)-2-oxoethyl)-2-mercaptothiazol-4(5H)-one] | – | –
9 | 0.0001 to 10 µM | 0.0001 to 10 µM | 0.0001 to 10 µM | NCC(O)CC(=O)N1[C@@H]2CC[C@H]1CN(c1nc(OCC34CCCN3CCC4)nc3cc(-c4cc(O)cc5ccccc45)ccc13)C2 (stereo partly drawn) [P-0100, 4-amino-3-hydroxy-1-((1R,5S)-3-(7-(3-hydroxynaphthalen-1-yl)-2-((tetrahydro-1H-pyrrolizin-7a(5H)-yl)methoxy)quinazolin-4-yl)-3,8-diazabicyclo[3.2.1]octan-8-yl)butan-1-one] | – | –
10 | 0.0001 to 10 µM | 0.0001 to 10 µM | 0.0001 to 10 µM | O=C(Cn1ccnc1)N1[C@@H]2CC[C@H]1CN(c1nc(OCC34CCCN3CCC4)nc3c(F)c(-c4cc(O)cc5ccccc45)ccc13)C2 [P-0387, 1-((1R,5S)-3-(8-fluoro-7-(3-hydroxynaphthalen-1-yl)-2-((tetrahydro-1H-pyrrolizin-7a(5H)-yl)methoxy)quinazolin-4-yl)-3,8-diazabicyclo[3.2.1]octan-8-yl)-2-(1H-imidazol-1-yl)ethan-1-one] | – | –
11 | 0.0001 to 10 µM | 0.0001 to 10 µM | 0.0001 to 10 µM | O=C(CCCn1ccnc1)N1[C@@H]2CC[C@H]1CN(c1nc(OCC34CCCN3CCC4)nc3c(F)c(-c4cc(O)cc5ccccc45)ccc13)C2 [P-0351, 1-((1R,5S)-3-(8-fluoro-7-(3-hydroxynaphthalen-1-yl)-2-((tetrahydro-1H-pyrrolizin-7a(5H)-yl)methoxy)quinazolin-4-yl)-3,8-diazabicyclo[3.2.1]octan-8-yl)-4-(1H-imidazol-1-yl)butan-1-one] | – | –
12 | 0.0001 to 10 µM | 10 to 100 µM | 10 to 100 µM | CN1CCN(CCC(=O)N2[C@@H]3CC[C@H]2CN(c2nc(OC[C@@H]4CCCN4C)nc4cc(-c5cc(O)cc6ccccc56)ccc24)C3)CC1 [P-0116, 1-((1R,5S)-3-(7-(3-hydroxynaphthalen-1-yl)-2-(((S)-1-methylpyrrolidin-2-yl)methoxy)quinazolin-4-yl)-3,8-diazabicyclo[3.2.1]octan-8-yl)-3-(4-methylpiperazin-1-yl)propan-1-one] | – | –
13 | 0.0001 to 10 µM | 0.0001 to 10 µM | 0.0001 to 10 µM | CN1CCC[C@H]1COc1nc(N2CC3COCC(C2)N3)c2cc(Cl)c(-c3cc(O)cc4cccc(Cl)c34)c(F)c2n1 [P-0365, 4-(4-(3-oxa-7,9-diazabicyclo[3.3.1]nonan-7-yl)-6-chloro-8-fluoro-2-(((S)-1-methylpyrrolidin-2-yl)methoxy)quinazolin-7-yl)-5-chloronaphthalen-2-ol] | – | –

Row | SMILES | IC50 ([1]; KRAS G12D) | IC50 [2] | IC50 [3] | Improved KRAS G12D Biochemical Potency of Compounds with Bridged vs Non-Bridged R^1 Groups ([1]; Table 3) | IC50 [1, 4]
14 | CN1CCC[C@H]1COc1nc(N2C[C@H]3CC[C@@H](C2)N3)c2cc(Cl)c(-c3cc(O)cc4ccccc34)c(F)c2n1 [P-0001, 4-(4-((1R,5S)-3,8-diazabicyclo[3.2.1]octan-3-yl)-6-chloro-8-fluoro-2-(((S)-1-methylpyrrolidin-2-yl)methoxy)quinazolin-7-yl)naphthalen-2-ol] | 0.0001 to 10 µM | 0.0001 to 10 µM | 10 to 100 µM | P-0001 is about 70 times more potent than its non- bridged version at the R^1 variable. | 0.016 µM
15 | CN1CCC[C@H]1COc1nc(N2C[C@H]3CC[C@@H](C2)N3)c2cc(Cl)c(-c3c(O)cccc3F)c(F)c2n1 [P-0027, 2-(4-((1R,5S)-3,8-diazabicyclo[3.2.1]octan-3-yl)-6-chloro-8-fluoro-2-(((S)-1-methylpyrrolidin-2-yl)methoxy)quinazolin-7-yl)-3-fluorophenol] | 0.0001 to 10 µM | 10 to 100 µM | 10 to 100 µM | P-0027 is about 392 times more potent than its non- bridged version at the R^1 variable. | 0.038 µM
